Measurements from patent US20250072419A1, “SYSTEMS AND METHODS FOR APPLICATION OF ACTIVE INGREDIENTS TO CANNABIS” (Hazel Technologies, Inc., priority 2020, published 2025).
Values joined by “and” are separate entries in the source; they are usually repeats but may differ in a detail not shown here. Equal values may be shown once.

Key:
Type in all cases: in vivo
Cannabis variety A [1] = assay: cannabinoid profile of floral tissue by HPLC after 1-MCP treatment, variety A
Protocol: (§1) To examine the effect of 1-MCP exposure, six genetic replicates of a first variety of Cannabis (variety ‘A’) and six genetic replicates of a second variety of Cannabis (variety ‘B’) were grown under greenhouse conditions for a period of four weeks, then transferred to growth chamber conditions with a 12 hour photoperiod for three weeks to induce flower formation. Variety A was from a hybrid strain of 15% sativa and 85% indica bred by BC Bud Depot under the strain name Shiatsu. Variety B was from a hybrid strain of 50% sativa and 50% indica bred by Spectrum under the strain name Jack's Girl. Greenhouse conditions and growth chamber conditions are detailed in Table 1. Next, three of the genetic replicates of each variety were treated with 1-MCP via fumigation in a 295 cubic foot growth chamber for 18 hours using a source of the 1-MCP. The source of the 1-MCP was 250 g of a composition comprising 1-MCP in an amount of 2 wt % loaded in activated carbon as a porous adsorbent material. The treatment was initially activated via the addition of 0.07 gallons of liquid water to the composition, which accelerated release of 1-MCP and established an atmosphere within the growth chamber of 36.3 ppm 1-MCP. Twelve days later, the 18-hour 1-MCP treatment was repeated, and the treatment was repeated again the next day. Control groups of each variety were watered and exposed to identical conditions except that they were never fumigated with 1-MCP.
Cannabinoids concentrations were measured in the genetic replicates from variety A and variety B of Example 1 at three time-points: T1—two days before the first treatment with 1-MCP; T2—one week after the first treatment with 1-MCP; and T3—after all 1-MCP treatments, once the genetic replicates had reached full plant maturity. At each timepoint, three samples of floral tissue were collected from each genetic replicate and frozen overnight. To prepare samples of floral tissue for high performance liquid chromatography (HPLC) analysis, frozen floral tissue was ground, extracted in HPLC-grade methanol, and filtered. HPLC was performed on the filtered methanol, providing a cannabinoid profile for each sample of floral tissue.
Analysis of Variance (ANOVA) was performed to evaluate the effect of 1-MCP on cannabinoid content under each set of experimental conditions.

[2] = system: female Cannabis plants, variety 'A' (Shiatsu, 15% sativa and 85% indica); assay: development of male sex organs / phenotype on female plants after 1-MCP fumigation, variety A
Protocol: as §1, with “Control groups of each variety were watered and exposed to identical conditions except that they were never fumigated with 1-MCP.” left out

Cannabis variety B [3] = assay: total biomass and flower biomass of dried plants after 1-MCP treatment, variety B
Protocol: as §1
(§2) To examine the effect of 1-MCP exposure, the genetic replicates from variety A and variety B of Example 1 were measured (i) after plants were dried and (ii) after plants were dried and trimmed, reflecting flower biomass. Measurement (i) provided the total biomass of each genetic replicate, while measurement (ii) provided the mass of consumer-ready product. The drying of the plants was performed by placing the plants into a drying chamber (90° F., 16% relative humidity) for 72 hours prior to measurement and/or trimming.

Cannabis variety A [4] = assay: total biomass and flower biomass of dried plants after 1-MCP treatment, variety A
Protocol: as §1, §2

Cannabis variety B [5] = assay: cannabinoid profile of floral tissue by HPLC after 1-MCP treatment, variety B
Protocol: as §1, with “The treatment was initially activated via the addition of 0.07 gallons of liquid water to the composition, which accelerated release of 1-MCP and established an atmosphere within the growth chamber of 36.3 ppm 1-MCP. Twelve days later, the 18-hour 1-MCP treatment was repeated, and the treatment was repeated again the next day. Control groups of each variety were watered and exposed to identical conditions except that they were never fumigated with 1-MCP.” left out
Cannabinoids concentrations were measured in the genetic replicates from variety A and variety B of Example 1 at three time-points: T1—two days before the first treatment with 1-MCP; T2—one week after the first treatment with 1-MCP; and T3—after all 1-MCP treatments, once the genetic replicates had reached full plant maturity. […]

[6] = system: female Cannabis plants, variety 'B' (Jack's Girl, 50% sativa and 50% indica); assay: development of male sex organs on female plants after 1-MCP fumigation, variety B; conditions: for Flower clusters displaying male organs 30 days after treatment 3 (%): 36.3 ppm 1-MCP
Protocol: as §1
Stamens were not observed in variety ‘A’ genetic replicates or in either control group.

[7] = Treatment, single specimens, dried and trimmed plants
[8] = Treatment, single specimens, dried plants

## CC1=CC1 [1-MCP, 1-methylcyclopropene]
Cannabis variety A [1]; variety A
  deleterious effects on the overall profile of cannabinoids: no deleterious effects
Cannabis variety A [1]; variety A (FIGS. 9A-C)
  THCA, THCVA and CBGA concentrations, treated versus control (ANOVA): A few statistically significant differences
Cannabis variety A [1]; variety A, mature plants (T3) (FIG. 8)
  total cannabinoid concentration, treated versus control (ANOVA): no statistically significant difference
Cannabis variety A [1]; variety A, timepoint T2, one week after the first treatment (FIG. 8)
  total cannabinoid concentration, treated versus control (ANOVA): statistically significant difference
[2]; variety A genetic replicates treated with 1-MCP
  staminate growth: Staminate growth was not observed
[2]; variety A, three 1-MCP-treated plants (FIG. 7), none of three controls
  plants observed to have purple leaves: two of three
Cannabis variety B [3]
  decrease in flower biomass versus control: ~2%
  decrease in total biomass versus control: ~2%
  deleterious effect on the biomass: did not have a deleterious effect
Cannabis variety B [3]; Treatment, mean of 3 specimens, control mean 102.3
  Flower Biomass Group Mean: 100.3 g
Cannabis variety B [3]; Treatment, mean of 3 specimens, control mean 118.3
  Total Biomass Group Mean: 115.6 g
Cannabis variety B [3]; [7]
  Flower Biomass: 95 g and 106 g and 100 g
Cannabis variety B [3]; [8]
  Total Biomass: 111 g and 121 g and 115 g
Cannabis variety A [4]
  deleterious effect on the biomass: did not have a deleterious effect
  increase in flower biomass over the control group: ~10%
  increase in total biomass over the control group: ~22%
Cannabis variety A [4]; Treatment, mean of 3 specimens, control mean 87.6
  Flower Biomass Group Mean: 95.3 g
Cannabis variety A [4]; Treatment, mean of 3 specimens, control mean 105
  Total Biomass Group Mean: 118.3 g
Cannabis variety A [4]; [7]
  Flower Biomass: 98 g and 90 g
Cannabis variety A [4]; [8]
  Total Biomass: 130 g and 120 g and 105 g
Cannabis variety B [5]
  deleterious effects on the overall profile of cannabinoids: no deleterious effects
Cannabis variety B [5]; mature plants (T3) (FIG. 8)
  total cannabinoid concentration, treated versus control (ANOVA): no statistically significant difference
[6]; 15 days after final fumigation (FIG. 5)
  stamen growth on female floral tissue: presence of multiple stamens
[6]; 19 days after final fumigation (FIG. 6)
  stamen growth on female floral tissue: multiple stamens
[6]; Plant 1, three 18 h fumigations
  Flower clusters displaying male organs 30 days after treatment 3 (%): 97%
[6]; Plant 2, three 18 h fumigations
  Flower clusters displaying male organs 30 days after treatment 3 (%): 100%
[6]; Plant 3, three 18 h fumigations
  Flower clusters displaying male organs 30 days after treatment 3 (%): 86%
[6]; five days after final fumigation (FIG. 4)
  stamen growth on female floral tissue: further development of stamen growth
[6]; thirty days after the final 1-MCP treatment
  flower clusters displaying staminate growth: 80-100%
[6]; three days after the final fumigation (FIG. 3)
  stamen growth on female floral tissue: stamens were observed
